From patent US20250101001A1 (priority 2021, published 2025)

Assays:
[1] = assay type: in vivo; conditions: mice
Procedure: Head twitch response (HTR) experiments. C57BL/6J Mice (9-10 weeks old) are housed following an IACUC approved protocol. The mice are habituated in the test cage for at least 30 min, injected intraperitoneally with compound (injection volume 5 ml/kg), returned to the empty test cage, and filmed for 20 minutes. Each video is scored for the number of head-twitches by a trained observer blinded to treatment condition.

5HT2A sensor [2] = assay type: cell-based
5HT2A sensor [3] = assay type: cell-based; remark: listed apart in the source

| Compound | head-twitch response (HTR) [1] | activation of the 5HT2A sensor assay in agonist mode (5HT2A sensor [2]) | competition with 5-HT in the 5HT2A sensor assay in antagonist mode (5HT2A sensor [3]) |
| --- | --- | --- | --- |
| 5-MeO-DMT [Compound 5-MeO-DMT] | produces a robust, dose-dependent head-twitch response | activate the 5HT2A sensor assay in agonist mode | – |
| 6-F-DET [Compound 6-F-DET] | – | do not activate the 5HT2A sensor assay in agonist mode | can compete with 5HT binding to 5HT2A |
| 6-MeO-DMT [Compound 6-MeO-DMT] | does not produce a HTR | do not activate the 5HT2A sensor assay in agonist mode | compete off 5-HT |
| CN(C)CCc1c[nH]c2ccccc12 [DMT, N,N-dimethyltryptamine] | – | activate the 5HT2A sensor assay in agonist mode | – |
| O=C(c1ccc(F)cc1)C1CCN(CCn2c(=O)[nH]c3ccccc3c2=O)CC1 [Ketanserin] | – | do not activate the 5HT2A sensor assay in agonist mode | can compete with 5HT binding to 5HT2A |
| BOL148 | – | do not activate the 5HT2A sensor assay in agonist mode | can compete with 5HT binding to 5HT2A |
| L-MDMA | – | do not activate the 5HT2A sensor assay in agonist mode | – |
| R-MDMA | – | do not activate the 5HT2A sensor assay in agonist mode | – |
